In article PMC7177216, “A Novel Highly Sensitive Method for Measuring Inflammatory Neural-Derived APC Activity in Glial Cell Lines, Mouse Brain and Human CSF” (International Journal of Molecular Sciences, 2020):

Key:
[1] = target: T1, Bovine thrombin (Bos taurus, UniProt P00735); details: 1 µM inhibitor; 20 µM substrate; 1 mM CaCl2, 50 mM Tris-HCl pH 8.0; 37 °C
T1 construct: gene F2

[2] = target: T2, bovine FXa (Bos taurus, UniProt P00743); details: 1 µM inhibitor; 20 µM substrate; 1 mM CaCl2, 50 mM Tris-HCl pH 8.0; 37 °C
T2 construct: gene F10
T2 sequence (P00743 41-180): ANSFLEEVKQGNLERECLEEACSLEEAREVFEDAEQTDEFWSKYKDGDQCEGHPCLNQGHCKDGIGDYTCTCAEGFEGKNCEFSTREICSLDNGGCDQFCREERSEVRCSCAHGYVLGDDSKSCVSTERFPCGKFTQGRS
T2 sequence (P00743 234-492): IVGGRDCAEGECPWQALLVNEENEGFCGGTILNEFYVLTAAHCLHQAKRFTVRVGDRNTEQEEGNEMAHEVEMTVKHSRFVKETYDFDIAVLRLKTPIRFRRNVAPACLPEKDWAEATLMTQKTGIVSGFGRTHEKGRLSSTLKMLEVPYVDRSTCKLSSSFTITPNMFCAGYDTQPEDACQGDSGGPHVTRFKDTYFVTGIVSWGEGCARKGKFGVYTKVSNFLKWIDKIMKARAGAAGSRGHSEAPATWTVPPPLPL

## N=C(N)c1ccc(CC(NC(=O)CNS(=O)(=O)c2ccc3ccccc3c2)C(=O)N2CCCCC2)cc1 (centres unmarked) [NAPAP]
[1]
  inhibition of cleavage of Pyr-Pro-Arg-AMC (fluorescence): cleavage of the substrate by thrombin was fully blocked by NAPAP
[2]
  inhibition of cleavage of Pyr-Pro-Arg-AMC (fluorescence): FXa activity was fully blocked by apixaban and partially blocked by NAPAP
